Measurements as given in US20210255193A1, “LYSINE REACTIVE PROBES AND USES THEREOF” (The Scripps Research Institute, priority 2017, published 2021).

Legend:
Experiment in all cases: competitive isoTOP-ABPP
Assay type in all cases: binding
LMNA Prelamin-A/C = target: T1, LMNA Prelamin-A/C (Homo sapiens, UniProt P02545); conditions: for isoTOP-ABPP ratio (R) at liganded lysine P02545_K135: 50 uM, in vitro, sol, 231
T1 construct: isoTOP-ABPP experiments performed in cell lysates (in vitro); endogenous in cells; host or cells: MDA-MB-231 soluble lysate
T1 sequence (P02545 1-664): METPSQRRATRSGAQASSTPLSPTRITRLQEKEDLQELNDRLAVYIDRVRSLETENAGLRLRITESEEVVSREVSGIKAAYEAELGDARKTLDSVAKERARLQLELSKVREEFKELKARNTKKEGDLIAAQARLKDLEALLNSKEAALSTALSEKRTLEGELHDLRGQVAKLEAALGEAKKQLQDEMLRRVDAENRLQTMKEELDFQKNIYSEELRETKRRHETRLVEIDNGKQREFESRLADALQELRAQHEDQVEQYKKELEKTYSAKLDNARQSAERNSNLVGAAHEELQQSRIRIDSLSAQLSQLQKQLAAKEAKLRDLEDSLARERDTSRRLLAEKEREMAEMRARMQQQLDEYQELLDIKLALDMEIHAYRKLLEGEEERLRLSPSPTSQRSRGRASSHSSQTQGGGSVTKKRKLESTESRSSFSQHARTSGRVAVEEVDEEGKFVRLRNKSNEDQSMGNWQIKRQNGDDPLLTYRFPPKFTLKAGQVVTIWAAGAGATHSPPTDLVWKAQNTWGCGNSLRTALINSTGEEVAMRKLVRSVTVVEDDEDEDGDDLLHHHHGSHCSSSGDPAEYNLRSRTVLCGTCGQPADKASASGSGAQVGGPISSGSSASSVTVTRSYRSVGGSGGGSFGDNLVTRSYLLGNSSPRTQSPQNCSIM
In short: (§1)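 Competition format: fragment (50 μM activated ester, 100 μM guanidinylating agent) versus vehicle in lysate, then lysine probe STP-alkyne at 0.1 mM for 1 h. Quantitation by light/heavy TEV-tag MS1 peak areas, reported as R.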

[1] = target: T2, NPEPPS Puromycin-sensitive aminopeptidase (Homo sapiens, UniProt P55786); conditions: for isoTOP-ABPP ratio (R) at liganded lysine P55786_K712: 50 uM, in vitro, sol, 231
T2 construct: isoTOP-ABPP experiments performed in cell lysates (in vitro); endogenous in cells; host or cells: soluble proteome of human cancer cell lines (MDA-MB-231, Ramos, Jurkat)
T2 sequence (P55786 whole entry): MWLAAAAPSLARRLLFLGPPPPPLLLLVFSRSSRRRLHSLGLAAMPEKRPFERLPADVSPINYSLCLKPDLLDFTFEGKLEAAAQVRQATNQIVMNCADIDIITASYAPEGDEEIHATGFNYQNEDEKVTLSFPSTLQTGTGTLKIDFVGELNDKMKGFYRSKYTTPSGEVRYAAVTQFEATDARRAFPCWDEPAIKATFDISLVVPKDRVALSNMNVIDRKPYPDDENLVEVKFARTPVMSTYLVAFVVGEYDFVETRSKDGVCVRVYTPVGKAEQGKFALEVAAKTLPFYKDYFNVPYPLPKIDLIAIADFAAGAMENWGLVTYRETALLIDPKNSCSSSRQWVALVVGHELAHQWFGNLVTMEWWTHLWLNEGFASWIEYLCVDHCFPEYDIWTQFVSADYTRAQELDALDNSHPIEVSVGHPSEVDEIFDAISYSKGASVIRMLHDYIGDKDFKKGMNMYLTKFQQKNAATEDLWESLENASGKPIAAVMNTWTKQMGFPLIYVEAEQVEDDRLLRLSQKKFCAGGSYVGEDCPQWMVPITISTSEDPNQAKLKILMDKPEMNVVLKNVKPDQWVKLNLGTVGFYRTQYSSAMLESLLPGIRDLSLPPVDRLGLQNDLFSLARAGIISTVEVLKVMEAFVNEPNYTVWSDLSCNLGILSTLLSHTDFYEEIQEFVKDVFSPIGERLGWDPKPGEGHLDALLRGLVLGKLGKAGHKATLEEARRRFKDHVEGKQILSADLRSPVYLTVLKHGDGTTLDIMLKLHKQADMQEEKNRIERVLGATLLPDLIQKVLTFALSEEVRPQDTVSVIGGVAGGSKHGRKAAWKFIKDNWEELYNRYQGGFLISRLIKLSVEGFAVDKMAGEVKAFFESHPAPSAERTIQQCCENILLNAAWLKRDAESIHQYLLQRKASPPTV
In short: as §1

[2] = target: T3, TRAP1 Heat shock protein 75 kDa, mitochondrial (Homo sapiens, UniProt Q12931); conditions: for isoTOP-ABPP ratio (R) at liganded lysine Q12931_K699: 50 uM, in vitro, sol, 231
T3 construct: isoTOP-ABPP experiments performed in cell lysates (in vitro); endogenous in cells; host or cells: soluble proteome of human cancer cell lines (MDA-MB-231, Ramos, Jurkat)
T3 sequence (Q12931 60-704): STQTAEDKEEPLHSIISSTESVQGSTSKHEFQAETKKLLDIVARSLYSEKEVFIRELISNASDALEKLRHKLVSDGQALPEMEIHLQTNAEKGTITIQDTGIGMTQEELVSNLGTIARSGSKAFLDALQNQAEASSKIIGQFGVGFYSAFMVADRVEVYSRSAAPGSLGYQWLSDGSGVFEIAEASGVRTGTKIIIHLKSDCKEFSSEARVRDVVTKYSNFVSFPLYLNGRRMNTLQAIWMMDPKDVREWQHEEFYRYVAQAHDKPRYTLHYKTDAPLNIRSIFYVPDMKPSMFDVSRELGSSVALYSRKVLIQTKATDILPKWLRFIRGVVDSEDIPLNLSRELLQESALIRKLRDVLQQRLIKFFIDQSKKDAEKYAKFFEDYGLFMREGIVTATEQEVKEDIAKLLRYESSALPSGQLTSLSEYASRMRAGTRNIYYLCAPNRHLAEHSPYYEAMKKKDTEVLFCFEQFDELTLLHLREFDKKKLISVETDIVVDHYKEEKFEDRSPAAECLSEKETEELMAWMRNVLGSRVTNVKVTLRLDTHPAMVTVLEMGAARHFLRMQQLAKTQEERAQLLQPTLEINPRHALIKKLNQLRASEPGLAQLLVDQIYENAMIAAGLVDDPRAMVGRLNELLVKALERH
In short: as §1

Row | Compound | isoTOP-ABPP ratio, lysine P02545_K135 (LMNA Prelamin-A/C; 50 uM_231_sol_in vitro) | isoTOP-ABPP ratio, lysine P55786_K712 ([1]; 50 uM_231_sol_in vitro) | isoTOP-ABPP ratio, lysine Q12931_K699 ([2]; 50 uM_231_sol_in vitro) | further results
1 | O=C(Oc1ccc([N+](=O)[O-])cc1[N+](=O)[O-])C(c1ccccc1)(c1ccccc1)c1ccccc1 [fragment 42, 2,4-Dinitrophenyl 2,2,2-triphenylacetate] | – | – | – | isoTOP-ABPP ratio (R) at liganded lysine P02545_K135 (LMNA Prelamin-A/C): 1.0; isoTOP-ABPP ratio (R) at liganded lysine P55786_K712 [1]: 0.9; isoTOP-ABPP ratio (R) at liganded lysine Q12931_K699 [2]: 1.0
2 | CC(=O)Oc1ccc([N+](=O)[O-])cc1[N+](=O)[O-] [fragment 43, 2,4-Dinitrophenyl acetate] | – | – | – | isoTOP-ABPP ratio (R) at liganded lysine P02545_K135 (LMNA Prelamin-A/C): 20.0; isoTOP-ABPP ratio (R) at liganded lysine P55786_K712 [1]: 2.3; isoTOP-ABPP ratio (R) at liganded lysine Q12931_K699 [2]: 1.0
3 | N#Cc1ccc(C(=O)Oc2ccc([N+](=O)[O-])cc2[N+](=O)[O-])cc1 [fragment 44, 2,4-Dinitrophenyl 4-cyanobenzoate] | 0.9 | 1.0 | 0.9 | –
4 | O=C(CCc1ccc2c(c1)OCO2)Oc1ccc([N+](=O)[O-])cc1[N+](=O)[O-] [fragment 45, 2,4-Dinitrophenyl 3-(benzo[d][1,3]dioxol-5-yl)propanoate] | 0.9 | 1.3 | 1.4 | –
5 | O=C(ON1C(=O)CCC1=O)c1cc(C(F)(F)F)cc(C(F)(F)F)c1 [fragment 46, 3,5-Bis(trifluoromethyl)benzoic acid NHS ester] | 0.7 | 1.3 | 0.9 | –
6 | O=C(Oc1c(F)c(F)c(C(F)(F)F)c(F)c1F)c1cc(C(F)(F)F)cc(C(F)(F)F)c1 [fragment 47, 2,3,5,6-Tetrafluoro-4-(trifluoromethyl)phenyl 3,5-bis(trifluoromethyl)benzoate] | 1.2 | 1.0 | 1.1 | –
7 | O=C(Oc1c(F)c(F)cc(F)c1F)c1cc(C(F)(F)F)cc(C(F)(F)F)c1 [fragment 48, 2,3,5,6-Tetrafluorophenyl 3,5-bis(trifluoromethyl)benzoate] | 1.0 | 1.0 | 1.0 | –
8 | COC(=O)NC(=NC(=O)OCC1c2ccccc2-c2ccccc21)n1cccn1 [fragment 49, N-Methoxycarbonyl-N′-9-fluorenylmethoxycarbonyl-pyrazole-1-carboxamidine] | – | – | – | isoTOP-ABPP ratio, lysine P02545_K135 (LMNA Prelamin-A/C; 100 uM_231_sol_in vitro): 1.1; isoTOP-ABPP ratio, lysine P55786_K712 ([1]; 100 uM_231_sol_in vitro): 1.3; isoTOP-ABPP ratio, lysine Q12931_K699 ([2]; 100 uM_231_sol_in vitro): 1.2
9 | CC(C)(C)OC(=O)N=C(NC(=O)OC(C)(C)C)n1cccn1 [fragment 50, reference compound] | – | – | – | isoTOP-ABPP ratio, lysine P02545_K135 (LMNA Prelamin-A/C; 100 uM_231_sol_in vitro): 1.3; isoTOP-ABPP ratio, lysine P55786_K712 ([1]; 100 uM_231_sol_in vitro): 1.6; isoTOP-ABPP ratio, lysine Q12931_K699 ([2]; 100 uM_231_sol_in vitro): 1.1
10 | NC(=O)c1cc(C(F)(F)F)cc(C(F)(F)F)c1 [fragment 51, reference compound] | 1.0 | 1.0 | 1.2 | –
